Positions of bridges follow the written chain, without caps; N, C: chain ends. Non-standard residues stand in square brackets, D forms with d. Residues, ends and D or L forms follow the SMILES beside them. Bip = N[C@@H](Cc1ccc(-c2ccccc2)cc1)C(=O)O; Hyp = O=C(O)[C@@H]1C[C@@H](O)CN1; Nle = CCCC[C@H](N)C(=O)O; Orn = NCCC[C@H](N)C(=O)O; Aib = CC(C)(N)C(=O)O
What was measured:
α9 nAChR = molecular target: T1, α9 nAChR (Homo sapiens, UniProt Q9UGM1); assay: BLI (biolayer interferometry) affinity of peptides to α9 nAChR; format: binding; conditions: NTA sensor, α9 nAChR 5 µg/mL, peptide 1.372-1000 nM in PBS
T1 construct: inferred from capture on NTA sensor
T1 sequence (Q9UGM1 23-479): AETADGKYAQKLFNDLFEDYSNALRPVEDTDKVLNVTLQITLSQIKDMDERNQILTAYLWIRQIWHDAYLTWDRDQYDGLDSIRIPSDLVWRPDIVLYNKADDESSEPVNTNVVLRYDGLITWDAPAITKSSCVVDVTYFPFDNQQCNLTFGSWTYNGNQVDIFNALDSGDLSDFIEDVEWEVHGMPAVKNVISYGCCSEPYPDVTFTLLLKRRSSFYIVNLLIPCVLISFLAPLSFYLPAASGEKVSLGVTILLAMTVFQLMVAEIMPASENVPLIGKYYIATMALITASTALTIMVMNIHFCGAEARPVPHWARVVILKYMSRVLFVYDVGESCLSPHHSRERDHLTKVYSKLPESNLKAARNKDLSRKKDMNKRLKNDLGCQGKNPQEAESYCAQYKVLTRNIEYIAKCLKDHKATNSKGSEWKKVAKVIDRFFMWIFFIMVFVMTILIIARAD
Excerpt: BLI is a label-free technology that converts optical interference signals occurring on the surface of BLI biosensors into real-time response signals. By monitoring the molecular binding process in real time, the system determines association rate constants (ka or kon), dissociation rate constants (kd or koff), and initial binding rates, and calculates affinity (KD) by fitting analysis. Here are the specific procedures: NTA sensors (Sartorius) were placed in a pre-wetting tray, which was then positioned in a black 96-well plate with 200 µL PBS per well. The NTA sensors were pre-wetted for at least 15 minutes. The target protein α9 nAChR was diluted in PBS to 5 µg/mL, with 200 µL added per well. Test peptides were dissolved in PBS and serially diluted threefold, with concentrations from high to low as 1000 nM, 333.3 nM, 111.1 nM, 37.04 nM, 12.35 nM, 4.115 nM, and 1.372 nM, with an additional well with PBS only as a zeroconcentration control. After equilibrating the instrument baseline, the NTA sensor was used to immobilize the target protein α9 nAChR. Once immobilization was complete, the baseline was re-equilibrated, followed by a 5-minute association and a 5-minute dissociation phase. Affinity measurements of the test peptides were conducted sequentially using the above procedure. The procedure for measuring peptide affinity to α7 nAChR was similar, except that the α7 nAChR concentration was 20 µg/mL. Tables 2 and 3 show the BLI-determined affinities of alanine-scan peptide analogs with target proteins, which identified sites on the parent peptide suitable for modification. Subsequently, single-site non-natural amino acid substituted peptides were evaluated by BLI for target protein affinity. Finally, multi-site combinatorial modified peptides were measured for affinity by BLI, leading to the selection of high-affinity peptides for further screen and drug development potential. Table 2 Test Results for Affinity of Modified Peptides to α9 nAChR

[1] = test system: mouse oxaliplatin acute chemotherapy pain model; assay: Mouse oxaliplatin chemotherapy pain model, multiple peptides (Example 8); format: in vivo; conditions: single dose 3 mg/kg s.c., 0.5-8 h post-dose, n=3
Description: Oxaliplatin was dissolved in 5% glucose solution to a concentration of 1 mg/mL. For model induction, each male C57 mouse (Shanghai Bikai Keyi Biotechnology Co., Ltd.) received a single intraperitoneal injection of oxaliplatin at 10 mg/kg. Mice in the negative control or blank control group received 5% glucose solution. Approximately one week after model induction, mechanical pain thresholds of the mice were measured three times per mouse, and the average value was calculated. Mice were then randomly assigned to groups based on their pain thresholds. Drug administration was carried out according to the dosing schedule shown in Table 7, with a single dose per mouse. Mechanical pain thresholds were measured at 0.5, 1, 2, 4, 6, and 8 h post-dose. […] Table 7 Dosing Scheme for Oxaliplatin Chemotherapy Pain Model in Mice

[2] = Plasma stability of AJ003-40 and AJ003-24 (HPLC, Example 4); format: in vitro ADME; conditions: human plasma; for main peak area: 2 mg/mL
Description: Peptides AJ003-40 and AJ003-24 were separately weighed and mixed with human plasma to prepare solutions at 2 mg/mL. 300 µL of peptide-containing plasma was mixed with 300 µL acetonitrile, centrifuged at 4°C and 12,000 rpm for 5 minutes, and the supernatant was filtered through an organic membrane. 200 µL of the filtrate was transferred to an LC vial as the 0 h sample. Peptide-containing plasma was incubated in a 37°C water bath. For AJ003-40, 300 µL of plasma was sampled at 24 h, mixed with 300 µL acetonitrile, centrifuged, filtered, and 200 µL of the filtrate was transferred to an LC vial as the 24 h sample. For AJ003-24, 300 µL of plasma was sampled at 22 h, processed similarly, and 200 µL of the filtrate was transferred to an LC vial as the 22 h sample.

Question: For `CC(C)C[C@H](NC(=O)[C@@H](NC(=O)[C@H]1CSSC[C@H](NC(=O)[C@H](CO)NC(=O)CN)C(=O)N[C@@H](CO)C(=O)N[C@@H]([C@@H](C)O)C(=O)N2CCC[C@H]2C(=O)N2CCC[C@H]2C(=O)N[C@@H](CO)C(=O)N1)C(C)C)C(=O)N[C@@H](Cc1ccc(O)cc1)C(=O)N[C@@H](CO)C(=O)O` [AJ003, GSCSTPPS-(D-Cys)-VLYS (disulfide bond between positions 3 and 9)] (H-GSCSTPPS[dC]VLYS-OH; disulfide 3-9), which Kd (α9 nAChR) is on record?
Answer: Its Kd is 4.48 nM.

Question: Which “analgesic activity against oxaliplatin-induced chemotherapy pain (mechanical pain threshold compared with the model group)” value [1] does the source give for `CCCC[C@H](NC(=O)[C@@H](NC(=O)[C@H]1CSSC[C@H](NC(=O)[C@H](CO)NC(=O)CN)C(=O)N[C@@H](CO)C(=O)N[C@H]([C@H](C)O)C(=O)N2C[C@H](O)C[C@H]2C(=O)N2C[C@H](O)C[C@H]2C(=O)NC(C)(C)C(=O)N1)C(C)C)C(=O)N[C@@H](Cc1ccc(-c2ccccc2)cc1)C(=O)N[C@@H](CCCN)C(N)=O` [AJ003-36, GSCS-(D-Thr)-Hyp-Hyp-Aib-(D-Cys)-V-Nle-Bip-Orn-NH2 (3,9 disulfide bond)] (H-GSCS[dT][Hyp][Hyp][Aib][dC]V[Nle][Bip][Orn]-NH2; disulfide 3-9) here?
Answer: The value was “effective analgesic activity”.

Question: With `CCCC[C@H](NC(=O)[C@@H](NC(=O)[C@H]1CSSC[C@H](NC(=O)[C@H](CO)NC(=O)CN)C(=O)N[C@@H](CO)C(=O)N[C@H]([C@H](C)O)C(=O)N2C[C@H](O)C[C@H]2C(=O)N2C[C@H](O)C[C@H]2C(=O)N[C@@H](CO)C(=O)N1)C(C)C)C(=O)N[C@@H](Cc1c[nH]c2ccccc12)C(=O)N[C@@H](CCCN)C(N)=O` [AJ003-40, GSCS-(D-Thr)-Hyp-Hyp-S-(D-Cys)-V-Nle-W-Orn-NH2 (3,9 disulfide bond)] (H-GSCS[dT][Hyp][Hyp]S[dC]V[Nle]W[Orn]-NH2; disulfide 3-9) as the compound, how does the main peak area ([2]; 0 h) read?
Answer: Its main peak area is 15149.38.

Question: And the main peak area ([2]; 37°C, 24 h)?
Answer: The main peak area was 11829.51.

Question: What about the metabolised at 24 h, 2 mg/mL ([2]; 37°C, 24 h, read-out: degradation) of the same compound?
Answer: Its metabolised at 24 h, 2 mg/mL is 21.9%.

From patent publication EP4725956A1, “MODIFIED POLYPEPTIDE AND USE THEREOF IN FIELD OF ANALGESIA” (Nanjing Anji Biotechnology Co., Ltd., priority 2023, dated 2024)
